According to PubChem BioAssay (NCI):
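Grown in 96-well plates, cells were treated for 48 hours with each compound at five concentrations. Insufficient inhibition: endpoint recorded as highest concentration tested. At the GI50, growth is halved. At the TGI there is no net growth.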

Key:
Experiment in all cases: NCI tumour cell line growth inhibition, 48 h
A498 renal = test system: A498 renal
SK-MEL-28 melanoma = test system: SK-MEL-28 melanoma
UACC-257 melanoma = test system: UACC-257 melanoma
SW-620 colon = test system: SW-620 colon
TK-10 renal = test system: TK-10 renal
MALME-3M melanoma = test system: MALME-3M melanoma
SNB-75 CNS = test system: SNB-75 CNS
NCI-H23 lung = test system: NCI-H23 lung
OVCAR-5 ovarian = test system: OVCAR-5 ovarian
CCRF-CEM leukemia = test system: CCRF-CEM leukemia

| SMILES | GI50 (A498 renal) [µM] | TGI (A498 renal) [µM] | GI50 (SK-MEL-28 melanoma) [µM] | TGI (SK-MEL-28 melanoma) [µM] | GI50 (UACC-257 melanoma) [µM] | TGI (UACC-257 melanoma) [µM] | GI50 (SW-620 colon) [µM] | TGI (SW-620 colon) [µM] | GI50 (TK-10 renal) [µM] | TGI (TK-10 renal) [µM] | GI50 (MALME-3M melanoma) [µM] | TGI (MALME-3M melanoma) [µM] | GI50 (SNB-75 CNS) [µM] | TGI (SNB-75 CNS) [µM] | GI50 (NCI-H23 lung) [µM] | TGI (NCI-H23 lung) [µM] | GI50 (OVCAR-5 ovarian) [µM] | TGI (OVCAR-5 ovarian) [µM] | GI50 (CCRF-CEM leukemia) [µM] | TGI (CCRF-CEM leukemia) [µM] |
| --- | --- | --- | --- | --- | --- | --- | --- | --- | --- | --- | --- | --- | --- | --- | --- | --- | --- | --- | --- | --- |
| O=C(Nc1ccccc1OC(F)(F)F)Nc1n[nH]c2ccccc12 | > 100 | > 100 | 42.2 | > 100 | 47.2 | > 100 | 36.8 | > 100 | 37.9 | > 100 | 76.8 | > 100 | 17.5 | 49.8 | 50 | > 100 | 34.3 | > 100 | – | – |
| COc1cc(Cc2cnc(/N=C3\C(=O)N(CN4CCN(c5c(F)cc6c(=O)c(C(=O)O)cn(C7CC7)c6c5OC)CC4C)c4ccc(F)cc43)nc2N)cc(OC)c1OC (configuration not stated) | 26 | 49.7 | – | – | 22.3 | 44.1 | 5.28 | 23.3 | 11.6 | 25.3 | – | – | – | – | 18.1 | 42.9 | 10.6 | 22.5 | 1.3 | 4.26 |
| COC1(OC)CCC2C1C1CCC(OC)(OC)C21 (configuration not stated) | – | > 50 | – | > 50 | – | > 50 | – | > 50 | – | – | – | > 50 | – | > 50 | – | > 50 | – | > 50 | – | > 50 |
| CN1C(=O)C(C)(C)C2(SC(C)(C)C2(C)C)N(C)C1=S (configuration not stated) | – | – | – | > 100 | – | > 100 | – | > 100 | – | – | – | > 100 | – | > 100 | – | > 100 | – | > 100 | – | > 100 |
| Clc1cc2nsnc2c(Cl)n1 | – | > 100 | – | 44.4 | – | 72.3 | – | 27.8 | – | 44 | – | 31.3 | – | – | – | 39.9 | – | > 100 | – | 27.1 |
| COc1cc2c(cc1OC)-c1c3cc(O)ccc3nn[n+]1CC2 | – | – | – | > 100 | – | – | – | > 100 | – | > 100 | – | – | – | > 100 | – | > 100 | – | – | – | > 100 |
| Nc1ccccc1SC(C[N+](=O)[O-])c1ccc2c(c1)OCO2 (configuration not stated) | – | 20.6 | – | 11.3 | – | 3.86 | – | 7.74 | – | 7.09 | – | 29.8 | – | 7.09 | – | 8.04 | – | 9.85 | – | – |
| CC(C)C/C(CC(=O)CCC(=O)Nc1ccccc1[N+](=O)[O-])=N\NC(=O)c1cc2ccccc2cc1O | – | – | – | > 100 | – | > 100 | – | > 100 | – | > 100 | – | > 100 | – | > 100 | – | > 100 | – | > 100 | – | 59.6 |
| Cn1c2ccccc2c2c(Nc3ccccc3)c3ccccc3nc21 | – | – | 17 | 49.6 | 33 | > 100 | 17.1 | 58.3 | 15.8 | 43.8 | 15.4 | 33.9 | 26.5 | > 100 | 31.4 | 67.4 | > 100 | > 100 | – | – |
| CN(C)C(=N)c1ccccc1 | – | – | – | > 100 | – | > 100 | – | > 100 | – | > 100 | – | > 100 | – | > 100 | – | > 100 | – | > 100 | – | – |
| CCN(CCO)CC1CCCC2CCCCC21 (configuration not stated) | – | > 100 | – | > 100 | – | > 100 | – | > 100 | – | > 100 | – | > 100 | – | > 100 | – | > 100 | – | > 100 | – | – |
| N#CCCN(CCC#N)c1ccc(/C=C2\N=C(c3cc([N+](=O)[O-])ccc3Cl)OC2=O)cc1 | – | > 100 | – | > 100 | – | 44.1 | – | > 100 | – | – | – | > 100 | – | > 100 | – | – | – | > 100 | – | – |
| COc1ccc2c(C3=C(c4cn(C)c5ccccc45)C(=O)NC3=O)cn(C)c2c1 | 0.054 | 0.215 | 0.166 | > 25 | 1.61 | > 25 | 0.104 | > 25 | > 25 | > 25 | > 25 | > 25 | 0.0567 | > 25 | 0.143 | > 25 | – | – | 0.0961 | > 25 |
| CCOC(=O)C1=C(C)NC(=S)NC1c1ccccc1 (configuration not stated) | – | > 100 | – | > 100 | – | > 100 | – | – | – | > 100 | – | > 100 | – | > 100 | – | > 100 | – | > 100 | – | > 76.9 |
| Brc1ccc(N=c2nc3ccccn3n3nc(-c4ccccc4)cc23)cc1 | – | – | – | > 100 | – | > 100 | – | > 100 | – | 95.4 | – | 26.7 | – | > 100 | – | > 100 | – | – | – | > 100 |
